Measured values: US20100120789A1, “Compound” (priority 2005, published 2010)

Target: T1, Human 11β-HSD1 (Homo sapiens, UniProt P28845)
Test: 11β-HSD1 HTRF assay (human liver microsome fractions, cortisol by HTRF)
Format: biochemical
Conditions: 10 μM compound; human liver microsomes
Description: 11β-HSD1 HTRF Assay Protocol
The 11β-HSD Type 1 assay was carried out at room temperature in 96 well microtitre plates in a total volume of 40 μl. Assay buffer contained 30 mM Tris.HCl, 1 mM EDTA, pH 7.2. Inhibitor compounds were tested at varying concentrations at a final Dimethyl Sulphoxide concentration of 1%. Compounds were usually tested at 10 μM. The substrate mixture contained cortisone, NADPH and glucose-6-phosphate at final concentrations of 1 μM, 180 μM and 1 mM respectively. Assays were started by the addition of 10p1 human liver microsome fractions, 20 mg per ml protein, containing 11β-HSD Type 1, diluted 1 to 40 prior to use. Following mixing microtitre plates were shaken for 30 minutes. Reactions were stopped by the addition of 10 μl 1 mM Glyccheritinnic acid solution. Production of Cortisol was measured by Homogenous Time Resolved Fluorescence using a cortisol assay kit; Cisbio International Cortisol HTRF kit (62CORPEB), following the manufacturer's protocol.

T1 sequence (P28845 whole entry): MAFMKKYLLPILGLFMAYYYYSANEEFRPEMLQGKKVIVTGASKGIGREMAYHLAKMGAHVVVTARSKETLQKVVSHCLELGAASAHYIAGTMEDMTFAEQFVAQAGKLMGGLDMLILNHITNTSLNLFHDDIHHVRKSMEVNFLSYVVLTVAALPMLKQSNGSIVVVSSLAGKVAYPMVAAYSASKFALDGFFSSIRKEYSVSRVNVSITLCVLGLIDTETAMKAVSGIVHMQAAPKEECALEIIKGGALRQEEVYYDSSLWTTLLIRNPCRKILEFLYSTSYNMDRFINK

Structure (SMILES) | inhibition at 10 µM [%]
COc1ccc(NC(=O)C23CC4CC(CC(C4)C2)C3)cn1 [compound 1544] | > 60
O=C(CC12CC3CC(CC(C3)C1)C2)NCc1ccccn1 [compound 1565] | > 60
CCCc1ccc(S(=O)(=O)NC23CC4CC(CC(C4)C2)C3)cc1 [compound 1341] | 20 to 60
O=C(COc1ccc(Cl)cc1)C12CC3CC(CC(C3)C1)C2 [compound 1610] | > 60
O=S(=O)(NCC12CC3CC(CC(C3)C1)C2)c1cccs1 [compound 1575] | > 60
CC(=O)Nc1ccc(OCC(=O)C23CC4CC(CC(C4)C2)C3)cc1 [compound 1569] | > 60
O=C(CSCc1ccc(Cl)cc1)C12CC3CC(CC(C3)C1)C2 [compound 1621] | > 60
O=S(=O)(NC12CC3CC(CC(C3)C1)C2)c1cccs1 [compound 1573] | > 60
Cc1ccc(-c2noc(C34CC5CC(CC(C5)C3)C4)n2)cc1 [compound 1599] | 20 to 60
O=C(NCc1ccco1)C12CC3CC(CC(C3)C1)C2 [compound 1579] | > 60
O=C(NCCN1CCCCC1)C12CC3CC(CC(C3)C1)C2 [compound 1598] | > 60
Clc1ccc(-c2noc(C34CC5CC(CC(C5)C3)C4)n2)cc1 [compound 1627] | 20 to 60
CN(Cc1cccs1)C(=O)C12CC3CC(CC(C3)C1)C2 [compound 1576] | > 60

Target: T1, Human 11β-HSD1
Test: 11β-HSD1 HEK assay (whole HEK 293 cells stably transfected with HSD11B1, SPA)
Format: cell-based
Parameters: expressed in transfected cells; host or cells: HEK 293
Conditions: HEK293, read-out: % INHIBITION of Human 11 β-HSD1 at 10 μM (HEK)
Description: 11β-HSD1 HEK Assay Protocol (Cell Based Assay)
11β-HSD1 activity is measured in whole HEK 293 cells stably transfected with the HSD11B1 gene. Cells are incubated in 96-well microplates in the presence of tritiated substrate. Enzyme activity is determined by measuring the amount of tritated product by scintillation proximity assay (SPA). Assay plates contain internal high and low controls to allow calculation of percentage inhibition.
2. When the cells are 80% confluent the medium is removed from each well. 100 μl fresh, serum-free, medium containing ^3H-cortisone and test compound in 1% DMSO is added to each well*. Control wells are also dispensed.
3. The plate is incubated at […] for the required time period.
4. 50 μl of media is removed from each well and transferred to a microplate containing 100 μl of a pre-incubated mixture of anti-cortisol antibody and SPA bead. The mixture is incubated with gentle shaking until equilibrium is reached, before transferring to a scintillation counter to establish the enzyme activity in each sample.
10 μl of compound is dispensed into each well of a 96-well microplate in 10% DMSO at 100 μM concentration. 90 μl media containing ^3H-cortisone is added to each well. The compound/media/substrate mixture is then transferred to the assay plate containing the cells.

Structure (SMILES) | inhibition at 10 µM [%]
CN(Cc1cccs1)C(=O)C12CC3CC(CC(C3)C1)C2 [compound 1700] | > 60
CN(Cc1cccs1)C(=O)[C@@H]1CC2C=CC1C2 (stereo partly drawn) [compound 1710] | > 60
O=C(COCc1cccs1)C12CC3CC(CC(C3)C1)C2 [compound 1692] | > 60
CN(Cc1cccs1)C(=O)C1(C)CCCCC1 [compound 1699] | > 60
COc1ccc(NC(=O)C23CC4CC(CC(C4)C2)C3)cn1 [compound 1544] | 20 to 60
Cc1c(Cl)cccc1S(=O)(=O)NC12CC3CC(CC(C3)C1)C2 [compound 1343] | 20 to 60
CC(C(=O)NCCc1cccs1)(c1ccccc1)c1ccccc1 [compound 1650] | < 20
O=C(CC12CC3CC(CC(C3)C1)C2)NCc1ccccn1 [compound 1565] | 20 to 60
CC1(C(=O)NCCc2cccs2)CCCCC1 [compound 1655] | > 60
O=C(CC12CC3CC(CC(C3)C1)C2)NCc1csc2ccccc12 [compound 1691] | 20 to 60
CN(Cc1cccs1)C(=O)C(C)(c1ccccc1)c1ccccc1 [compound 1698] | 20 to 60
Cc1nc2cc(NC(=O)CC34CC5CC(CC(C5)C3)C4)ccc2s1 [compound 1566] | 20 to 60
O=C(NC12CC3CC(CC(C3)C1)C2)OCc1cccs1 [compound 1711] | > 60
O=C(NCCc1cccs1)[C@@H]1CC2C=CC1C2 (stereo partly drawn) [compound 1708] | 20 to 60
CCCc1ccc(S(=O)(=O)NC23CC4CC(CC(C4)C2)C3)cc1 [compound 1341] | 20 to 60
O=C(NCCc1cccs1)C12CC3CC(CC1C3)C2 [compound 1656] | > 60
O=C(NCc1cccs1)C12CC3CC(CC(O)(C3)C1)C2 [compound 1675] | < 20
O=C(N1CCc2sccc2C1)C12CC3CC(CC(C3)C1)C2 [compound 1721] | > 60
O=C(COc1ccc(Cl)cc1)C12CC3CC(CC(C3)C1)C2 [compound 1610] | > 60
CN(Cc1cccs1)C(=O)C1(C)CC1 [compound 1697] | < 20
O=S(=O)(NCC12CC3CC(CC(C3)C1)C2)c1cccs1 [compound 1575] | < 20

Structure (SMILES) | inhibition at 10 µM [%]
CC(=O)Nc1ccc(OCC(=O)C23CC4CC(CC(C4)C2)C3)cc1 [compound 1569] | > 60
O=C(NCCc1cccs1)NC12CC3CC(CC(C3)C1)C2 [compound 1714] | > 60
O=C(CSCc1ccc(Cl)cc1)C12CC3CC(CC(C3)C1)C2 [compound 1621] | > 60
Cc1c(Cl)cccc1S(=O)(=O)NCC12CC3CC(CC(C3)C1)C2 [compound 1370] | 20 to 60
CN(Cc1cccs1)C(=O)CC(C)(C)C [compound 1694] | > 60
Cc1ccc(-c2noc(C34CC5CC(CC(C5)C3)C4)n2)cc1 [compound 1599] | 20 to 60
O=C(NCc1ccco1)C12CC3CC(CC(C3)C1)C2 [compound 1579] | > 60
O=C(NCCN1CCCCC1)C12CC3CC(CC(C3)C1)C2 [compound 1598] | > 60
O=C(NCc1cccs1)NC12CC3CC(CC(C3)C1)C2 [compound 1713] | 20 to 60
O=C(NCc1cccs1)C12CC3CC(CC1C3)C2 [compound 1648] | > 60
O=C(NCCc1cccs1)C12CC3CC(CC(O)(C3)C1)C2 [compound 1676] | > 60
CC12CC3CC(C)(C1)CC(C(=O)NCc1cccs1)(C3)C2 [compound 1671] | > 60
O=C(CC12CC3CC(CC(C3)C1)C2)NCc1cc2ccccc2s1 [compound 1690] | 20 to 60
CC1(C(=O)NCCc2cccs2)CC1 [compound 1654] | 20 to 60
CN(Cc1cccs1)C(=O)[C@H]1CC2C=CC1C2 (stereo partly drawn) [compound 1709] | > 60
Cn1cccc1CNC(=O)CC12CC3CC(CC(C3)C1)C2 [compound 1663] | > 60
CC1(C(=O)NCc2cccs2)CCCCC1 [compound 1642] | 20 to 60
O=C(NCCc1cccs1)[C@H]1CC2C=CC1C2 (stereo partly drawn) [compound 1707] | 20 to 60
CC(C)(C)C(=O)NCCc1cccs1 [compound 1674] | 20 to 60
CC(C)(C)CC(=O)NCc1cccs1 [compound 1639] | 20 to 60
CN(Cc1cccs1)C(=O)C(C)(C)C [compound 1695] | < 20

Structure (SMILES) | inhibition at 10 µM [%]
CC(C)(C)CC(=O)NCCc1cccs1 [compound 1652] | 20 to 60
CN(Cc1cccs1)C(=O)CC12CC3CC(CC(C3)C1)C2 [compound 1661] | > 60
O=C(NCc1csc2ccccc12)C12CC3CC(CC(C3)C1)C2 [compound 1689] | 20 to 60
CN(Cc1cccs1)C(=O)C1(c2ccc(Cl)cc2)CCCC1 [compound 1696] | > 60
O=C(NCc1cccs1)C1CCCCC1 [compound 1638] | 20 to 60
c1csc(Cc2noc(C34CC5CC(CC(C5)C3)C4)n2)c1 [compound 1687] | 20 to 60
Cc1ccc(Cc2noc(C34CC5CC(CC(C5)C3)C4)n2)cc1 [compound 1660] | 20 to 60
O=C(NCc1cccs1)[C@H]1CC2C=CC1C2 (stereo partly drawn) [compound 1706] | 20 to 60
O=S(=O)(NCC12CC3CC(CC(C3)C1)C2)c1ccc(-c2ccccc2)cc1 [compound 1371] | 20 to 60
O=C(NCCc1cccs1)C1(c2ccc(Cl)cc2)CCCC1 [compound 1651] | < 20
CC(C(=O)NCc1cccs1)(c1ccccc1)c1ccccc1 [compound 1640] | 20 to 60
CC(C)(C)C(=O)NCc1cccs1 [compound 1673] | 20 to 60
CC1(C(=O)NCc2cccs2)CC1 [compound 1641] | 20 to 60
O=S(=O)(NC12CC3CC(CC(C3)C1)C2)c1cc(Cl)ccc1Cl [compound 1342] | 20 to 60
CC12CC3CC(C)(C1)CC(C(=O)NCCc1cccs1)(C3)C2 [compound 1672] | > 60
Cc1ccc(Cc2noc(CC34CC5CC(CC(C5)C3)C4)n2)cc1 [compound 1664] | 20 to 60
O=C(CC12CC3CC(CC(C3)C1)C2)NCc1ccco1 [compound 1662] | > 60
O=C(NC12CC3CC(CC(C3)C1)C2)OCCc1cccs1 [compound 1712] | > 60
O=C(NCc1cc2ccccc2s1)C12CC3CC(CC(C3)C1)C2 [compound 1688] | < 20
CN(Cc1cccs1)C(=O)C1CCCCC1 [compound 1693] | > 60

Same assay, conditions: HEK293; read-out: IC50 (nM) Inhibition of Human 11β-HSD1 (HEK293)

Structure (SMILES) | IC50 [nM]
CCNC(=O)Cc1ccc(OCC(=O)C23CC4CC(CC(C4)C2)C3)cc1 [Compound 16] | 912
CCNC(=O)c1cccc(OCC(=O)C23CC4CC(CC(C4)C2)C3)c1 [Compound 11] | 343
CNC(=O)c1cccc(OCC(=O)C23CC4CC(CC(C4)C2)C3)c1 [Compound 10] | 68
CC(C)NC(=O)c1cccc(OCC(=O)C23CC4CC(CC(C4)C2)C3)c1 [Compound 12] | 1220
NC(=O)c1ccc(OCC(=O)C23CC4CC(CC(C4)C2)C3)cc1 [Compound 1] | 117
CNC(=O)Cc1ccc(OCC(=O)C23CC4CC(CC(C4)C2)C3)cc1 [Compound 13] | 94
CNC(=O)c1ccc(COCC(=O)C23CC4CC(CC(C4)C2)C3)cc1 [Compound 18] | 250
NC(=O)c1cccc(OCC(=O)C23CC4CC(CC(C4)C2)C3)c1 [Compound 9] | 1050
NC(=O)Cc1ccc(OCC(=O)C23CC4CC(CC(C4)C2)C3)cc1 [Compound 15] | 204
